Laboratory results taken from article PMC8003391, “QSAR-Based Virtual Screening of Natural Products Database for Identification of Potent Antimalarial Hits” (Biomolecules, 2021).
Like-named read-outs stand apart in the source and are kept apart here.

What was measured:
[1] = Cytotoxicity, MTT reduction assay; format: cell-based; settings: human
Procedure: Cytotoxicity of selected compounds was evaluated using the MTT reduction assay (3-[4,5-dimethyl-thiazol-2-yl]-2,5-diphenyltetrazolium chloride). Human hepatoma (HepG2) cells were cultured in Dulbecco’s Modified Eagle Medium supplemented with gentamycin (40 mg/L) and 10% heat-inactivated fetal bovine serum at 37 °C and 5% CO2. Cells were seeded in 96-well plates (NEST Biotechnology Co., Ltd., Wuxi, Jiangsu, China) at 10^5 cells per well and incubated in the presence of a serial dilution of the drugs starting at 100 µM. After 72 h of incubation, MTT was added to the wells. The optical density was measured at 570 nm (CLARIOStar, Labtech BMG Inc, Durham, NC, USA) and cell viability was expressed as a percentage relative to the untreated control. CC50 values were calculated by plotting a log dose vs. viability curve in GraphPad Prism 6 (GraphPad, La Jolla, CA, USA). The selectivity index (SI) of the compounds was determined by the expression:SI = (HepG2 CC50)/(Pf EC50), where HepG2 CC50 corresponds to the cytotoxic concentration of compounds in HepG2 cells and Pf EC50 relates to the 50% inhibitory concentration on P. falciparum 3D7 strain.

P. falciparum W2 [2] = test: In vitro P. falciparum growth inhibition assay (SybrGreen), multi-drug-resistant W2 strain; format: cell-based, Plasmodium falciparum; settings: for activity more potent than artesunate: W2, compared with artesunate EC50 = 5.7 nM
Procedure: (§1) Chloroquine-sensitive (3D7) and multi-drug-resistant (W2) P. falciparum strains were cultured following the candle jar method as described by Trager and Jensen. Briefly, parasites were maintained in RPMI 1640 medium supplemented with 10% A+ human plasma at 5% CO2 atmosphere. Ring stage synchronized cultures were obtained by two consecutive treatments with a 5% D-sorbitol solution [32] in 48 h intervals.
(§2) Parasite growth inhibition assays were conducted by distributing ring stage synchronized parasites at 2% hematocrit and 0.5% parasitemia in 96-well plates (NEST Biotechnology Co., Ltd., Wuxi, Jiangsu, China). Parasites were incubated in the presence of drugs in a two-fold 12-point serial dilution starting at 10 µM in duplicate. Chloroquine was used as an antimalarial standard. At the end of a 72 h incubation, parasitemia was determined by fluorescence reading at 490 nm excitation and 540 nm emission (BMG CLARIOstar, BMG Labtech Inc., Durham, NC, USA) using SybrGreen fluorescent dye as described by Hartwig et al.. Parasite growth inhibition was determined as a percentage relative to drug-free control. EC50 values were interpolated from log doses vs. inhibition curves in GraphPad Prism 6 (GraphPad, La Jolla, CA, USA).

P. falciparum 3D7 = test: In vitro P. falciparum growth inhibition assay (SybrGreen), chloroquine-sensitive 3D7 strain; format: cell-based, Plasmodium falciparum; settings: for inhibition at 5 µM: 3D7, read-out: inhibition of parasite growth
Procedure: as §1, §2

P. falciparum W2 [3] = tested on: P. falciparum W2; parameters: method as in PMID 25461309; settings: read-out: EC50 against multi-resistant strain; cited from earlier work
[4] = HepG2 cells, 72 h, MTT, read-out: CC50 HepG2
[5] = Plasmodium falciparum, W2, 72 h, multi-drug-resistant W2 strain, 72 h, SybrGreen, ± standard deviation, read-out: EC50 PfW2
[6] = Plasmodium falciparum, 3D7, 72 h, chloroquine-sensitive 3D7 strain, 72 h, SybrGreen, ± standard deviation, read-out: EC50 Pf3D7
[7] = multi-drug-resistant W2 strain, 72 h, SybrGreen, ± standard deviation, read-out: EC50 PfW2
[8] = chloroquine-sensitive 3D7 strain, 72 h, SybrGreen, ± standard deviation, read-out: EC50 Pf3D7
[9] = Plasmodium falciparum, W2, W2, text value, read-out: EC50 against P. falciparum W2
[10] = Plasmodium falciparum, 3D7, 3D7, text value, read-out: EC50 against P. falciparum 3D7

Row | EC50 (P. falciparum W2 [2]; [5]) | EC50 (P. falciparum 3D7; [6]) | EC50 (P. falciparum 3D7; [8]) | SMILES | CC50 at 72 h [1, 4] | inhibition at 5 µM (P. falciparum 3D7; Plasmodium falciparum, 72 h) | further results
1 | 3.11 ± 0.54 µM | 9.09 ± 3.74 µM | – | Cn1c(=O)[nH]c2nnc(-c3ccc(Cl)cc3)nc2c1=O [LDT-592] | 17 µM | > 70% | –
2 | – | 0.0016 µM | – | C[C@H]1[C@H](OC(=O)CCC(=O)O)O[C@@H]2O[C@@]3(C)CC[C@H]4[C@H](C)CC[C@@H]1[C@@]24OO3 [Artesunate, reference compound] | – | – | EC50 (P. falciparum W2 [3]): 0.0057 µM
3 | – | – | – | CCN(CC)CCCC(C)Nc1ccnc2cc(Cl)ccc12 (stereo not drawn) [Chloroquine, reference compound] | – | – | EC50 (P. falciparum W2 [2]; Plasmodium falciparum, W2, 72 h, read-out: EC50 PfW2): 0.147 ± 0.04 µM; EC50 (P. falciparum 3D7; Plasmodium falciparum, 3D7, 72 h, read-out: EC50 Pf3D7): 0.0079 µM
4 | < 5 µM | < 5 µM | 3.68 ± 1.92 µM | COc1ccc(C2c3[nH]c4ccccc4c3C[C@H]3C(=O)N(C4CC4)CC(=O)N23)cc1OC (stereo partly drawn) [LDT-599] | 21 ± 2.51 µM | > 70% | EC50 (P. falciparum W2 [2]; [7]): 2.74 ± 0.78 µM
5 | – | – | – | COC(CNC(=O)CCC(=O)OC1OC2OC3(C)CCC4C(C)CCC(C1C)C24OO3)OC (stereo not drawn) [LDT-597] | 18.3 ± 3.51 µM | > 70% | EC50 (P. falciparum W2 [2]; [9]): 0.00056 µM; activity more potent than artesunate (P. falciparum W2 [2]): about 10 fold; EC50 (P. falciparum 3D7; [10]): 0.00054 µM
6 | – | < 5 µM | 3.84 ± 1.45 µM | CCOC(=O)c1ccc2[nH]cc(C(=O)OCC)c(=O)c2c1 [LDT-588] | 67 ± 2.28 µM | > 70% | –
7 | 5.65 ± 3.11 µM | 5.26 ± 0.52 µM | – | COc1ccc(C2CC(=O)NC3=C2C(=O)C2(Oc4c(Cl)c(OC)cc(OC)c4C2=O)C(C)C3)cc1O (stereo not drawn) [LDT-614] | 23.6 ± 1.82 µM | > 70% | –
8 | – | – | – | CC(NC(=O)CCCNC(=O)CCC(=O)OC1OC2OC3(C)CCC4C(C)CCC(C1C)C24OO3)C(=O)O (stereo not drawn) [LDT-598] | 25.9 ± 1.13 µM | > 70% | EC50 (P. falciparum W2 [2]; [9]): 0.00059 µM; activity more potent than artesunate (P. falciparum W2 [2]): about 10 fold; EC50 (P. falciparum 3D7; [10]): 0.00078 µM
9 | 0.65 ± 0.47 µM | 6.61 ± 3.2 µM | – | COc1cc(C2NCCc3cc(OC)c(OC)cc32)ccc1O (stereo not drawn) [LDT-601] | 21.8 ± 4.16 µM | > 70% | –

Row | SMILES | EC50 (P. falciparum W2 [2]; [5]) | EC50 (P. falciparum 3D7; [6]) | EC50 (P. falciparum 3D7; [8]) | CC50 at 72 h [1, 4] | inhibition at 5 µM (P. falciparum 3D7; Plasmodium falciparum, 72 h) | further results
10 | COc1ccccc1CNC(=O)C1CN2CCC1CC2Cn1cc(-c2cccc(N)c2)nn1 (stereo not drawn) [LDT-586] | < 5 µM | < 5 µM | 4.52 ± 0.91 µM | – | > 70% | CC50 at 72 h [1]: 98.6 µM; EC50 (P. falciparum W2 [2]; [7]): 3.44 ± 1.3 µM
